According to PubChem BioAssay (NCI):
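Values below derive from 48-hour exposures of cells grown in 96-well plates, with endpoints linearly interpolated between the two concentrations bracketing the appropriate inhibition level. TGI is the concentration that stops growth completely.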

Experiments:
Test in all cases: DTP human tumour cell line panel, 48 h
NCI/ADR-RES ovarian = system: NCI/ADR-RES ovarian
HS 578T breast = system: HS 578T breast
HCT-116 colon = system: HCT-116 colon
SF-268 CNS = system: SF-268 CNS
UACC-62 melanoma = system: UACC-62 melanoma
PC-3 prostate = system: PC-3 prostate
DU-145 prostate = system: DU-145 prostate
OVCAR-3 ovarian = system: OVCAR-3 ovarian
HOP-62 NSCLC = system: HOP-62 NSCLC
LOX IMVI melanoma = system: LOX IMVI melanoma

Row | SMILES | TGI (NCI/ADR-RES ovarian) | TGI (HS 578T breast) | TGI (HCT-116 colon) | TGI (SF-268 CNS) | TGI (UACC-62 melanoma) | TGI (PC-3 prostate) | TGI (DU-145 prostate) | TGI (OVCAR-3 ovarian) | TGI (HOP-62 NSCLC) | TGI (LOX IMVI melanoma)
1 | CCCC(CCC(=O)O)(CCC(=O)O)[N+](=O)[O-] | > 100 µM | > 100 µM | > 100 µM | > 100 µM | > 100 µM | > 100 µM | > 100 µM |  |  | 
2 | CCN1CC2(CO)CCC(OC)C34C5CC6C(OC)CC(O)(C5C6OC)C(O)(C(OC)C23)C14 (centres undefined) | > 375 µM |  | > 375 µM | > 375 µM | > 375 µM |  |  | > 174 µM | > 375 µM | > 375 µM
3 | O/N=C1/C(=C/c2ccc(Br)cc2)CCCC1C(NO)c1ccc(Br)cc1 (centres undefined) |  |  | 31.3 µM | 34.1 µM | 27.8 µM |  |  | 31.1 µM |  | 35.5 µM
4 | COc1ccc2nc3c(nc2c1)C(C)(C)C=C3c1ccc(Br)cc1 | > 100 µM | > 100 µM | > 100 µM | > 100 µM |  | > 100 µM | > 100 µM |  | > 100 µM | > 100 µM
5 | CC(C)c1cccc(C(C)C)c1NC(=O)/C(Cc1nc2ccc(Cl)cc2[nH]c1=O)=N\NC(=O)C[N+](C)(C)C |  |  | > 100 µM | > 100 µM | > 100 µM |  |  | > 100 µM | > 100 µM | 
6 | CC(=O)Nc1ccc(S(=O)(=O)Nc2cnc3ccccc3n2)cc1 |  |  |  | > 100 µM | > 100 µM |  |  | > 100 µM | > 100 µM | > 100 µM
7 | O=C(Cn1cc(I)c(C(=O)NCC(O)CO)n1)NCC(O)CO (centres undefined) |  |  | > 100 µM | > 100 µM | > 100 µM |  |  | > 100 µM | > 100 µM | > 100 µM
8 | Cc1ccc(C2=C(c3ccccc3)C(O)(c3ccccc3)C(c3ccccc3)=C2c2ccc(C)cc2)cc1 |  |  | > 100 µM | > 100 µM |  |  |  |  | > 100 µM | 
9 | Nc1nc(Cl)cc(OCC2(CO)CCCCC2)n1 | > 100 µM | > 100 µM | > 100 µM | > 100 µM |  | > 100 µM | > 100 µM | > 100 µM | > 100 µM | > 100 µM
10 | COc1ccc(/C=N/NC(=O)NCCNCCO)cc1 |  |  | > 100 µM | > 100 µM | > 100 µM |  |  | > 100 µM | > 100 µM | > 100 µM
11 | CC(C)C(N=C1CC2CCC1(C(=O)Nc1ccccc1O)C2(C)C)c1ccccc1 (centres undefined) |  |  | > 10 µM | > 10 µM | > 10 µM |  |  | > 10 µM | > 10 µM | > 10 µM
12 | CC(=O)O[C@H]1C(=O)[C@@]2(C)C(C(OC(=O)c3ccccc3)[C@]3(O)CC(OC(=O)C(O)C(NC(=O)c4cccc(Cl)c4)c4ccccc4)C(C)=C1C3(C)C)[C@]1(OC(C)=O)CO[C@@H]1C[C@@H]2O (some centres undefined) | > 10 µM |  | 5.12 µM | > 10 µM |  | > 10 µM | 5.58 µM | > 10 µM | > 10 µM | > 10 µM
13 | c1ccc(C2SCc3nc4ccccc4n32)cc1 (centres undefined) |  |  | > 100 µM | > 100 µM | > 100 µM |  |  | 54.5 µM | > 100 µM | > 100 µM
14 | CN1C(=O)c2c(c3c4ccccc4n(C)c3c3c2c2ccccc2n3C)C1=O | > 100 µM |  | > 100 µM |  | > 100 µM | > 100 µM | > 100 µM | > 100 µM | > 100 µM | > 100 µM
15 | Cc1[nH]c(-c2ccccc2)c(O)c1C(=O)OC1CC(C)CCC1C(C)C (centres undefined) | 28.2 µM | 39 µM | 28.1 µM | 29.4 µM | 30.9 µM | 26.7 µM | 29.7 µM | 25.2 µM | 28.6 µM | 
16 | CSCCC(NOC(=O)Cc1ccccc1)P(=O)(O)c1ccccc1 (centres undefined) | > 100 µM | > 100 µM | > 100 µM |  |  | > 100 µM | > 100 µM | > 100 µM | > 100 µM | > 100 µM
17 | C#CCN(Cc1ccc2nc(-c3ccccc3)c(Cl)nc2c1)c1ccc(Cl)c(Cl)c1 |  |  | > 100 µM | > 100 µM | > 100 µM |  |  | > 100 µM | > 100 µM | > 100 µM
18 | N#Cc1cc([N+](=O)[O-])ccc1NC(=O)C(=O)Nn1c(=S)[nH]c2ccccc2c1=O |  |  | > 100 µM | > 100 µM |  |  |  | > 100 µM | > 100 µM | > 100 µM
19 | CCN(CC)CCNC(=O)C1COc2ccc(-c3cc(=O)c4ccccc4o3)cc2O1 (centres undefined) | 45.8 µM |  | 32.7 µM | 55.9 µM | 31.9 µM |  |  | 41.4 µM | 47 µM | 31.7 µM
20 | C=C1C(=O)OC2C=C(C)CC3C=C(CCC=C(C)CCC12)C(=O)O3 (centres undefined) | 114 µM |  | 85.6 µM | 145 µM | 113 µM |  |  | 116 µM | 216 µM | 95.1 µM
21 | O=C(NC1CCCCC1)N1CCNC1=S | > 100 µM | > 100 µM | > 100 µM | > 100 µM |  |  | > 100 µM | > 100 µM | > 100 µM | > 100 µM
